# Active and inactive are the calls of the source. The rule behind the calls is not given here.
# Columns and labels:
# [1] = Antioxidant activity assessed as ABTS radical scavenging activity at 100 uM after 5 mins by spectrophotometric method; assay type: functional
# [2] = Antioxidant activity of the compound assessed as DPPH radical scavenging activity at 1 mM after 5 mins by spectrophotometric method; assay type: functional
# [3] = Antioxidant activity assessed as ABTS radical scavenging activity after 5 mins by spectrophotometric method; assay type: functional; set-up: unit not given here
# [4] = Antioxidant activity of the compound assessed as DPPH radical scavenging activity after 5 mins by spectrophotometric method; assay type: functional; set-up: unit not given here
# [5] = system: DLD-1; experiment: Antioxidant activity in human DLD1 cells assessed as glutathione reactivity by measuring GSSG level per mg protein by ortho-phthalaldehyde probe based fluorescence spectrometric method (reference value: 0.69 nmol); assay type: functional
# [6] = system: DLD-1; experiment: Antioxidant activity in human DLD1 cells assessed as ratio of reduced glutathione to oxidized glutathione by ortho-phthalaldehyde probe based fluorescence spectrometric method (reference value: 3.19 +/- 0.2); assay type: functional
# [7] = biological target: T1, Extracellular superoxide dismutase [Cu-Zn] (Homo sapiens) (UniProt P08294); experiment: Inhibition of SOD3 in human DLD1 cells at 100 uM using xanthine as substrate pretreated for 24 hrs followed by substrate addition after 5 mins by NBT dye based spectrophotometric method; assay type: cell-based
# T1 sequence (whole entry): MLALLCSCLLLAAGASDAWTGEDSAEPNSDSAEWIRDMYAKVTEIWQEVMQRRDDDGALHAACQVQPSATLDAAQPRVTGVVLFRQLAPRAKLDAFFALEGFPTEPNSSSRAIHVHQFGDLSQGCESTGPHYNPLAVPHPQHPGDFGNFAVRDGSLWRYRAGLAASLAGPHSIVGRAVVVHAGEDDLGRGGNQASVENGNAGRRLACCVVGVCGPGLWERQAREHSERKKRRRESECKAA
# [8] = system: DLD-1; experiment: Antiproliferative activity against human DLD1 cells at 100 uM after 4 to 48 hrs by Alamar blue assay; assay type: functional, cell-based
# [9] = system: DLD-1; experiment: Down regulation of MRP1 expression in human DLD1 cells at 100 uM after 24 hrs by fluorescence assay; assay type: functional, cell-based
# [10] = Glutathione reactivity assessed as rate constant for total GSH loss by UV-vis spectrophotometric method
# [11] = system: DLD-1; experiment: Antioxidant activity in human DLD1 cells assessed as glutathione reactivity by measuring GSH level per mg protein by ortho-phthalaldehyde probe based fluorescence spectrometric method (reference value: 2.19 +/- 0.18 nmol); assay type: functional
# [12] = biological target: Superoxide dismutase 1/2 (Homo sapiens) (UniProt P00441+P04179); experiment: Inhibition of SOD1/SOD2 in human DLD1 cells at 100 uM using xanthine as substrate pretreated for 24 hrs followed by substrate addition measured after 5 mins by NBT dye based spectrophotometric method; assay type: cell-based
# [13] = system: DLD-1; experiment: Cytotoxicity against human DLD1 cells by MTT assay; assay type: functional, cell-based
# [14] = biological target: T2, Superoxide dismutase [Mn], mitochondrial (Homo sapiens) (UniProt P04179); experiment: Inhibition of mitochondrial SOD2 in human DLD1 cells at 100 uM using xanthine as substrate pretreated for 24 hrs followed by substrate addition after 5 mins by NBT dye based spectrophotometric method; assay type: cell-based
# T2 sequence (whole entry): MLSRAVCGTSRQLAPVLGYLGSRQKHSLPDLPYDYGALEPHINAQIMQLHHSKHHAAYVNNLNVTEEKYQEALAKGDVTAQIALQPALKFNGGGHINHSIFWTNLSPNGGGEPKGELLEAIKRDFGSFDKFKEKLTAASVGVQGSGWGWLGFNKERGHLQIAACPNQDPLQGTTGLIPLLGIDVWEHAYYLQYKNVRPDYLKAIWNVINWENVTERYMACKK
# Chain of Superoxide dismutase 1/2 (Homo sapiens) (P00441 whole entry, looked up, one chain of several): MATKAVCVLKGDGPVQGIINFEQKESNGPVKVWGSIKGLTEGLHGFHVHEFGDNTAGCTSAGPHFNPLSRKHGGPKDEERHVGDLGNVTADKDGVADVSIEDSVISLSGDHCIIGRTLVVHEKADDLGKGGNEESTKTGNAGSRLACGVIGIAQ
SMILES,1/IC50 [3],IC50 [3] [µM],1/IC50 [4],IC50 [4] [µM],inhibition [7],inhibition [12],inhibition [14],inhibition [1] [%],inhibition [2] [%],Activity [5] [nmol],Ratio [6],Activity [8],Activity [9],Activity [10],Activity [11] [nmol],IC50 [13] [µM],K [10] [M⁻¹ s⁻¹]
COc1cc(/C=C/C(=O)C(=Cc2ccccc2)C(=O)/C=C/c2ccc(O)c(OC)c2)ccc1O,0.116,8.58,0.012,84.4,inactive,inactive,–,75.1,58.6,1.4,3.19,Active,Active,Active,4.47,5.45,–
COc1cc(C=C(C(=O)/C=C/c2ccc(O)c(OC)c2)C(=O)/C=C/c2ccc(O)c(OC)c2)ccc1O,0.305,3.28,0.014,72.4,–,Active,Active,97.9,59.1,2.8,1.63,Active,Active,Active,4.56,5.06,–
CCOc1cc(C=C(C(=O)/C=C/c2ccc(O)c(OC)c2)C(=O)/C=C/c2ccc(O)c(OC)c2)ccc1O,0.251,3.98,0.01,123,inactive,Active,–,94.3,42.3,1.02,5,Active,Active,Active,5.12,4.26,–
CCOc1cc(/C=C/C(=O)C(=Cc2ccc(O)c(OC)c2)C(=O)/C=C/c2ccc(O)c(OCC)c2)ccc1O,0.187,5.36,0.017,60.5,inactive,–,–,96.6,63,4.3,2.27,Active,Active,Active,9.75,9.63,–
C#CC(=O)OCC,–,–,–,–,–,–,–,–,–,–,–,–,–,–,–,–,1.75
CCOc1cc(/C=C/C(=O)C(=Cc2ccccc2)C(=O)/C=C/c2ccc(O)c(OCC)c2)ccc1O,0.049,20.4,0.011,91.4,–,Active,Active,60.5,54.7,0.48,6.89,Active,Active,Active,3.27,5.06,–
CCOc1ccc(C=C(C(=O)/C=C/c2ccc(O)c(OC)c2)C(=O)/C=C/c2ccc(O)c(OC)c2)cc1OCC,0.1,10,0.014,73,inactive,inactive,Active,74.9,61.9,1.88,2.28,Active,Active,Active,4.27,4.12,–
C/C=C(/C)C(C)=O,–,–,–,–,–,–,–,–,–,–,–,–,–,–,–,–,0.013
CCOc1cc(/C=C/C(=O)C(=Cc2ccc(OCC)c(OCC)c2)C(=O)/C=C/c2ccc(O)c(OCC)c2)ccc1O,0.049,20.2,0.016,61.6,inactive,inactive,–,71.4,69,3.24,0.65,Active,–,Active,2.12,3.45,–
C=CC(=O)OCCCC,–,–,–,–,–,–,–,–,–,–,–,–,–,–,–,–,0.142
CCOc1cc(/C=C/C(=O)C(=Cc2ccc(O)c(O)c2)C(=O)/C=C/c2ccc(O)c(OCC)c2)ccc1O,0.275,3.63,0.04,25.2,Active,Active,–,98.1,81.2,1.16,3.78,Active,–,Active,4.41,5.1,–

# The remaining compounds from weak to strong by IC50 [3], led by results:
1/IC50 [3],IC50 [3] [µM],1/IC50 [4],IC50 [4] [µM],inhibition [7],inhibition [12],inhibition [14],SMILES,inhibition [1] [%],inhibition [2] [%],Activity [5] [nmol],Ratio [6],Activity [8],Activity [9],Activity [10],Activity [11] [nmol],IC50 [13] [µM],K [10] [M⁻¹ s⁻¹]
0.068,14.8,0.021,48,inactive,inactive,inactive,CCOc1cc(/C=C/C(=O)C(=Cc2ccc(O)cc2)C(=O)/C=C/c2ccc(O)c(OCC)c2)ccc1O,87.7,74.4,3.13,1.15,Active,Active,Active,3.59,20.3,–
0.088,11.3,0.019,53.2,inactive,Active,Active,CCOc1cc(/C=C/C(=O)C(=Cc2ccc(OC)c(OC)c2)C(=O)/C=C/c2ccc(O)c(OCC)c2)ccc1O,80.6,73.5,0.49,6.59,Active,–,Active,3.24,42,–
0.148,6.76,0.014,71,inactive,Active,Active,COc1cc(/C=C/C(=O)C(=Cc2ccc(OC)c(OC)c2)C(=O)/C=C/c2ccc(O)c(OC)c2)ccc1O,83.6,64.8,4.21,0.93,Active,Active,Active,3.93,3.07,–
0.156,6.4,0.041,24.5,–,–,–,CCOc1cc(/C=C/C(=O)CC(=O)/C=C/c2ccc(O)c(OCC)c2)ccc1O [ETHYL CURCUMIN],96.1,93.4,–,–,–,–,–,–,–,–
0.158,6.32,0.021,48.7,–,Active,–,COc1cc(/C=C/C(=O)C(=Cc2ccc(O)cc2)C(=O)/C=C/c2ccc(O)c(OC)c2)ccc1O,89.2,73.8,1.2,3.99,Active,Active,Active,4.8,4.08,–
0.177,5.66,0.038,26.5,–,–,–,COc1cc(/C=C/C(=O)CC(=O)/C=C/c2ccc(O)c(OC)c2)ccc1O [CURCUMIN],95,91.7,–,–,–,–,–,–,–,–
0.195,5.14,0.01,96.7,inactive,inactive,–,CCOc1cc(C=C(C(=O)/C=C/c2ccc(O)c(OCC)c2)C(=O)/C=C/c2ccc(O)c(OCC)c2)ccc1O,88.5,50.6,0.84,3.8,Active,–,Active,3.2,1.36,–
0.455,2.2,0.097,10.3,–,Active,–,COc1cc(/C=C/C(=O)C(=Cc2ccc(O)c(O)c2)C(=O)/C=C/c2ccc(O)c(OC)c2)ccc1O,98.2,92.5,0.5,5.17,Active,–,inactive,2.6,17.6,–

# Source: ChEMBL document CHEMBL4020732, “Synthesis, structural characterization and biological activity of novel Knoevenagel condensates on DLD-1 human colon carcinoma” (Bioorg Med Chem Lett, 2017)
